In PMC2994217 (British Journal of Cancer, 2010):
Like-named read-outs stand apart in the source and are kept apart here.

Tests used:
[1] = no reference given, cited from earlier work
[2] = oral
Procedure: Patients were initially treated in cohorts of six per dose level. […] Both drugs were administered orally. […] (Figure 1) The duration of one cycle was 28 days.
Toxicity was evaluated according to the common toxicity criteria for adverse events (AEs) (CTCAEv3.0).

[3] = Pharmacokinetics of sirolimus in blood (LC/MS/MS, non-compartmental); format: in vivo, patients; settings: for Cmax / AUC(0-t) / half-life: human, whole blood; for half-life: read-out: t ½ (converted)
Excerpt: (§1) A paired t-test on log-transformed values was used to calculate changes in AUC, Cmax and t1/2. A P-value ⩽0.05 was considered significant.

[4] = Pharmacokinetics of sorafenib in plasma (LC/MS/MS, non-compartmental); format: in vivo, patients; settings: for Cmax: human, plasma
Excerpt: as §1

[5] = im, 1 mg, DL IM, sor 400 mg b.i.d., sir 1 mg q.d., cycle 1 day 1, single-dose sir, geometric mean (95% CI), n=3
[6] = im, DL IM, sor 400 mg b.i.d., sir 1 mg q.d., cycle 1 day 16, continuous dosing sor on single-dose sir, geometric mean (95% CI), n=3
[7] = oral, 1 mg, DL 0, sor 200 mg b.i.d., sir 1 mg q.d., cycle 1 day 1, single-dose sir, geometric mean (95% CI), n=6
[8] = oral, 2 mg, DL 1, Sor 200 mg b.i.d., sir 2 mg q.d., cycle 1 day 1, single-dose sir, geometric mean (95% CI), n=6
[9] = oral, DL 0, sor 200 mg b.i.d., sir 1 mg q.d., cycle 1 day 16, continuous dosing sor on single-dose sir, geometric mean (95% CI), n=6
[10] = oral, DL 1, Sor 200 mg b.i.d., sir 2 mg q.d., cycle 1 day 16, continuous dosing sor on single-dose sir, geometric mean (95% CI), n=6

CO[C@H]1C[C@@H]2CC[C@@H](C)[C@@](O)(O2)C(=O)C(=O)N2CCCC[C@H]2C(=O)O[C@H]([C@H](C)C[C@@H]2CC[C@@H](O)[C@H](OC)C2)CC(=O)[C@H](C)/C=C(\C)[C@@H](O)[C@@H](OC)C(=O)[C@H](C)C[C@H](C)/C=C/C=C/C=C/1C [sirolimus]
time until mean steady-state concentrations are achieved [1]: 5 to 7 days | terminal half-life ([1]; stable renal transplant recipients): 62 ± 12 h | MTD of the combination, sirolimus dose ([2]; combined with sorafenib 200 mg b.i.d.): 1 mg q.d. | change in mean AUC(0−96 h) of sirolimus ([3]; DL 0, simultaneous administration of both drugs, P=0.955): no change | average reduction of Cmax of sirolimus ([3]; DL 0, non-significant, P=0.515): 18% | mean decrease of Cmax of sirolimus ([3]; DL 1, pre-treatment with 200 mg b.i.d. sorafenib, P=0.006): 55% | change of mean terminal half-life of sirolimus ([3]; DL 1, pre-treatment with 200 mg b.i.d. sorafenib, P=0.66): remained unchanged | decrease of AUC(0−96 h) of sirolimus ([3]; DL 1, pre-treatment with 200 mg b.i.d. sorafenib, non-significant, P=0.125): 37% | average decrease of Cmax of sirolimus ([3]; DLim, P=0.027): 55% | average decrease of AUC(0−96 h) of sirolimus ([3]; DLim, P=0.363): 25% | Cmax [3, 5]: 7.99 ng/mL | AUC(0-t) ([3]; im, 1 mg, DL IM, sor 400 mg b.i.d., sir 1 mg q.d., cycle 1 day 1, single-dose sir, geometric mean (95% CI), n=3, read-out: AUC(0–96 h)): 139 ng·h/mL | half-life [3, 5]: 38.3 h | AUC(0-t) ([3]; im, AUC(0–12 h), DL IM, sor 400 mg b.i.d., sir 1 mg q.d., cycle 2 day 1, continuous sor on continuous sir, geometric mean (95% CI), n=2): 101 ng·h/mL | AUC(0-t) ([3]; im, AUC(0–12 h), DL IM, sor 400 mg b.i.d., sir 1 mg q.d., cycle 2 day 15, continuous sor on continuous sir, n=2): 113 ng·h/mL | Cmax [3, 6]: 3.62 ng/mL | AUC(0-t) ([3]; im, DL IM, sor 400 mg b.i.d., sir 1 mg q.d., cycle 1 day 16, continuous dosing sor on single-dose sir, geometric mean (95% CI), n=3, read-out: AUC(0–96 h)): 104 ng·h/mL | half-life [3, 6]: 32.9 h | Cmax ([3]; im, DL IM, sor 400 mg b.i.d., sir 1 mg q.d., cycle 2 day 1, continuous sor on continuous sir, geometric mean (95% CI), n=2): 11.2 ng/mL | Cmax ([3]; im, DL IM, sor 400 mg b.i.d., sir 1 mg q.d., cycle 2 day 15, continuous sor on continuous sir, geometric mean (95% CI), n=2): 13.7 ng/mL | Cmax [3, 7]: 3.81 ng/mL | AUC(0-t) ([3]; oral, 1 mg, DL 0, sor 200 mg b.i.d., sir 1 mg q.d., cycle 1 day 1, single-dose sir, geometric mean (95% CI), n=6, read-out: AUC(0–96 h)): 91.1 ng·h/mL | half-life [3, 7]: 45.5 h | Cmax [3, 8]: 5.74 ng/mL | AUC(0-t) ([3]; oral, 2 mg, DL 1, Sor 200 mg b.i.d., sir 2 mg q.d., cycle 1 day 1, single-dose sir, geometric mean (95% CI), n=6, read-out: AUC(0–96 h)): 124 ng·h/mL | half-life [3, 8]: 50.5 h | AUC(0-t) ([3]; oral, AUC(0–12 h), DL 0, sor 200 mg b.i.d., sir 1 mg q.d., cycle 2 day 1, continuous sor on continuous sir, geometric mean (95% CI), n=6): 59.4 ng·h/mL | AUC(0-t) ([3]; oral, AUC(0–12 h), DL 0, sor 200 mg b.i.d., sir 1 mg q.d., cycle 2 day 15, continuous sor on continuous sir, geometric mean (95% CI), n=6): 57.8 ng·h/mL | AUC(0-t) ([3]; oral, AUC(0–12 h), DL 1, Sor 200 mg b.i.d., sir 2 mg q.d., cycle 2 day 1, continuous sor on continuous sir, geometric mean (95% CI), n=4): 88.2 ng·h/mL | AUC(0-t) ([3]; oral, AUC(0–12 h), DL 1, Sor 200 mg b.i.d., sir 2 mg q.d., cycle 2 day 15, continuous sor on continuous sir, n=1): 84.6 ng·h/mL | Cmax [3, 9]: 3.14 ng/mL | AUC(0-t) ([3]; oral, DL 0, sor 200 mg b.i.d., sir 1 mg q.d., cycle 1 day 16, continuous dosing sor on single-dose sir, geometric mean (95% CI), n=6, read-out: AUC(0–96 h)): 91.7 ng·h/mL | half-life [3, 9]: 56.2 h | Cmax ([3]; oral, DL 0, sor 200 mg b.i.d., sir 1 mg q.d., cycle 2 day 1, continuous sor on continuous sir, geometric mean (95% CI), n=6): 6.3 ng/mL | Cmax ([3]; oral, DL 0, sor 200 mg b.i.d., sir 1 mg q.d., cycle 2 day 15, continuous sor on continuous sir, geometric mean (95% CI), n=6): 6.36 ng/mL | Cmax [3, 10]: 2.6 ng/mL | AUC(0-t) ([3]; oral, DL 1, Sor 200 mg b.i.d., sir 2 mg q.d., cycle 1 day 16, continuous dosing sor on single-dose sir, geometric mean (95% CI), n=6, read-out: AUC(0–96 h)): 78.2 ng·h/mL | half-life [3, 10]: 52.5 h | Cmax ([3]; oral, DL 1, Sor 200 mg b.i.d., sir 2 mg q.d., cycle 2 day 1, continuous sor on continuous sir, geometric mean (95% CI), n=5): 10 ng/mL | Cmax ([3]; oral, DL 1, Sor 200 mg b.i.d., sir 2 mg q.d., cycle 2 day 15, continuous sor on continuous sir, n=2): 17.6 ng/mL | effect of sorafenib on AUC(0−96) and Cmax of sirolimus ([3]; overall statement of abstract): reduced

CNC(=O)c1cc(Oc2ccc(NC(=O)Nc3ccc(Cl)c(C(F)(F)F)c3)cc2)ccn1 [sorafenib]
AUC(0–12 h) ([4]; DL 1, Sor 200 mg b.i.d., sir 2 mg q.d, cycle 2 day 1, continuous sir on continuous sor, geometric mean (95% CI), n=4): 39.3 (21–74) (n=4) mg h l^−1 | mean decrease in AUC(0−12 h) of sorafenib ([4]; DLim, 1 mg sirolimus with 400 mg b.i.d. sorafenib, non-significant, P=0.14): 15% | mean decrease in Cmax of sorafenib ([4]; DLim, 1 mg sirolimus with 400 mg b.i.d. sorafenib, non-significant, P=0.57): 8% | Cmax ([4]; im, 400 mg b.i.d., DL IM, Sor 400 mg b.i.d., sir 1 mg q.d., cycle 1 day 15, continuous dosing sor, geometric mean (95% CI), n=4): 13000 ng/mL | Cmax ([4]; im, DL IM, Sor 400 mg b.i.d., sir 1 mg q.d., cycle 1 day 16, single-dose sir on continuous dosing sor, geometric mean (95% CI), n=4): 11900 ng/mL | Cmax ([4]; im, DL IM, Sor 400 mg b.i.d., sir 1 mg q.d., cycle 2 day 1, continuous sir on continuous sor, geometric mean (95% CI), n=4): 6640 ng/mL | Cmax ([4]; im, DL IM, Sor 400 mg b.i.d., sir 1 mg q.d., cycle 2 day 15, continuous sir on continuous sor, geometric mean (95% CI), n=2): 5550 ng/mL | Cmax ([4]; oral, 200 mg b.i.d., DL 0, Sor 200 mg b.i.d., sir 1 mg q.d., cycle 1 day 15, continuous dosing sor, geometric mean (95% CI), n=6): 7590 ng/mL | Cmax ([4]; oral, DL 0, Sor 200 mg b.i.d., sir 1 mg q.d., cycle 2 day 1, continuous sir on continuous sor, geometric mean (95% CI), n=6): 7120 ng/mL | Cmax ([4]; oral, DL 0, Sor 200 mg b.i.d., sir 1 mg q.d., cycle 2 day 15, continuous sir on continuous sor, geometric mean (95% CI), n=6): 7320 ng/mL | Cmax ([4]; oral, DL 1, Sor 200 mg b.i.d., sir 2 mg q.d, cycle 2 day 1, continuous sir on continuous sor, geometric mean (95% CI), n=4): 5150 ng/mL | effect of sirolimus on the PK of sorafenib ([4]; overall statement of abstract): did not change | influence of sirolimus on AUC(0−12 h) of sorafenib ([4]; single oral doses of 1 mg or 2 mg sirolimus, sorafenib 200 mg b.i.d. multiple dosing, P=0.67): did not influence | influence of sirolimus on Cmax of sorafenib ([4]; single oral doses of 1 mg or 2 mg sirolimus, sorafenib 200 mg b.i.d. multiple dosing, P=0.96): did not influence | elimination half-life [1]: 25 to 48 h | MTD of the combination, sorafenib dose ([2]; combined with sirolimus 1 mg q.d.): 200 mg b.i.d.
